The subject of this experiment is PAKT/PKB (p-(S473) AKT) in H209 small cell lung carcinoma cells stimulated with Stem Cell Factor. In words: PAKT/PKB Cytoblot Assay with H209 cells (SCF-stimulated p-(S473) AKT). The experiment is classed as cell-based. The following applies: Homo sapiens, NCI-H209, compound 1 hour, SCF 25 ng/mL 5 minutes. As for the experimental part:
PAKT/PKB Cytoblot Assay Protocol with H209 Cells
H209 small cell lung carcinoma cells in log phase were plated at 50,000 cells/well in 96-well poly-lysine coated, clear bottom/black-sided plates (BD Cat # 354640) in 100 μl RPMI medium containing 0.1% (w/v) BSA, and incubated overnight at 37° C. in 5% CO2 incubator. The following day, compounds (10 mM stock solutions in DMSO) were added to the plates to generate final concentrations of 0.0, 0.01, 0.03, 0.1, 0.3, 1.0, 3.0 and 10 μM for IC50 determinations and incubated for 1 hour at 37° C. Cells were then left untreated or stimulated with Stem Cell Factor (SCF: Biosource Cat # PHC2116) at a final concentration of 25 ng/mL for 5 minutes at 37° C. in 5% CO2 incubator. The media was then removed using a vacuum manifold and the cells were washed once with Tris Buffered Saline (TBS).
Cells were then fixed by adding 200 μl of cold 3.7% (v/v) formaldehyde in TBS to each well for 15 minutes at 4° C. After removal of the formaldehyde, the cells were treated with the addition of 50 μl of methanol (at −20° C.) to each well for 5 minutes. After removal of the methanol, […] of 1% (w/v) BSA in TBS was added to each well to block non-specific antibody binding sites and the plate was incubated at room temperature for 30 minutes.
After removal of the blocking buffer, 50 μl of p-(S473) AKT rabbit polyclonal antibody (Cell Signaling Cat # 9277S) was added at a dilution of 1:250 in 0.1% (w/v) BSA in TBS, and the plate was incubated at room temperature for 1 hour. Plates were then washed 3 times with cold TBS containing 0.05% (v/v) Tween 20 (TBS-T) and […] of Horseradish peroxidase (HRP)-conjugated goat-anti-rabbit antibody (Amersham Cat # NA934V) at a dilution of 1:250 in TBS-T was added and the plate was incubated at room temperature for 1 h. After washing with ice-cold TBS-T four times, 100 μl of Enhanced Chemiluminescence (ECL) reagent (Amersham Cat# RPN2209) was added to each well and mixed on a mini-orbital shaker for 1 min. The plate was then read on a Perkin Elmer Victor 5 Multilabel Counter (#1420-0421).

Where [1] appears, read: group: between 500 nM and 1 μM (units in value).

Molecules are shown by their SMILES. Where a name gives a salt, the structure may show the parent alone.

As a reminder, the IC50 is the concentration needed to halve the response being measured. Read a high IC50 as a need for much substance. In the case of `O=C(O)CCNC(=O)c1cc(CNc2ccccc2C(=O)Nc2ccc3c(c2)OC(F)(F)O3)ccn1` [Example 99, N-[(4-{[(2-{[(2,2-difluoro-1,3-benzodioxol-5-yl)amino]carbonyl}phenyl)amino]methyl}pyridin-2-yl)carbonyl]beta-alanine], the IC50 (group: between 1 and 3 μM) lay within 1000 to 3000 nM. For `COc1cccc(NCc2ccncc2)c1C(=O)Nc1ccc2c(c1)OC(F)(F)C(F)(F)O2` [Example 9, 2-methoxy-6-[(pyridin-4-ylmethyl)amino]-N-(2,2,3,3-tetrafluoro-2,3-dihydro-1,4-benzodioxin-6-yl)benzamide], the half-maximal inhibitory concentration (IC50) (group: less than 500 nM) was less than 500 nM. The same measure, in the same setting: the figure for `CCOCCCNC(=O)c1cc(CNc2ccccc2C(=O)Nc2ccc3c(c2)OC(F)(F)O3)ccn1` [Example 110, 4-{[(2-{[(2,2-difluoro-1,3-benzodioxol-5-yl)amino]carbonyl}phenyl)amino]methyl}-N-(3-ethoxypropyl)pyridine-2-carboxamide] is less than 500 nM; for `O=C(NCCCCN1CCCC1)c1cc(CNc2ccccc2C(=O)Nc2ccc3c(c2)OC(F)(F)O3)ccn1` [Example 97, 4-{[(2-{[(2,2-difluoro-1,3-benzodioxol-5-yl)amino]carbonyl}phenyl)amino]methyl}-N-(4-pyrrolidin-1-ylbutyl)pyridine-2-carboxamide] it is less than 500 nM.

Compound `Cc1csc(Nc2cc(CNc3ccccc3C(=O)Nc3ccc4c(c3)OC(F)(F)O4)ccn2)n1` [Example 176, N-(2,2-difluoro-1,3-benzodioxol-5-yl)-2-[({2-[(4-methyl-1,3-thiazol-2-yl)amino]pyridin-4-yl}methyl)amino]benzamide] displayed a 50% inhibitory concentration (IC50) (group: less than 500 nM) of less than 500 nM. Same read-out and setting: for `CCNC(=O)c1cc(CNc2ccccc2C(=O)Nc2ccc3c(c2)OC(F)(F)C(F)(F)O3)ccn1` [Example 44, N-ethyl-4-{[(2-{[(2,2,3,3-tetrafluoro-2,3-dihydro-1,4-benzodioxin-6-yl)amino]carbonyl}phenyl)amino]methyl}pyridine-2-carboxamide] the value was less than 500 nM; for `CCOC(=O)c1cc(CNc2ccccc2C(=O)Nc2ccc3c(c2)OC(F)(F)O3)ccn1` [Example 82, Ethyl 4-{[(2-{[(2,2-difluoro-1,3-benzodioxol-5-yl)amino]carbonyl}phenyl)amino]methyl}pyridine-2-carboxylate], less than 500 nM. As for `O=C(Nc1ccc2c(c1)OC(F)(F)C(F)(F)O2)c1ncncc1NCc1ccncc1` [Example 39, 5-[(pyridin-4-ylmethyl)amino]-N-(2,2,3,3-tetrafluoro-2,3-dihydro-1,4-benzodioxin-6-yl)pyrimidine-4-carboxamide], the IC50 (group: between 1 and 3 μM) lay within 1000 to 3000 nM. `CCN(CC)CCNC(=O)c1cc(CNc2ccccc2C(=O)Nc2ccc3c(c2)OC(F)(F)O3)ccn1` [Example 88, N-[2-(diethylamino)ethyl]-4-{[(2{[(2,2-difluoro-1,3-benzodioxol-5-yl)amino]carbonyl}phenyl)amino]methyl}pyridine-2-carboxamide]: the half-inhibitory concentration (IC50) (group: less than 500 nM) was less than 500 nM. On the same count and under the same terms, for `CCCNC(=O)Nc1cc(CNc2ccccc2C(=O)Nc2ccc3c(c2)OC(F)(F)O3)ccn1` [Example 169, N-(2,2-difluoro-1,3-benzodioxol-5-yl)-2-{[(2-{[(propylamino)carbonyl]amino}pyridin-4-yl)methyl]amino}benzamide] the value was less than 500 nM; for `COC(C)C(=O)Nc1cc(CNc2ccccc2C(=O)Nc2ccc3c(c2)OC(F)(F)O3)ccn1` (centres unmarked) [Example 151, N-(2,2-difluoro-1,3-benzodioxol-5-yl)-2-[({2-[(2-methoxypropanoyl)amino]pyridin-4yl}methyl)amino]benzamide], less than 500 nM; for `O=C(Nc1ccc2c(c1)OC(F)(F)O2)c1ccccc1NCc1ccnc(NCCO)c1` [Example 134, N-(2,2-difluoro-1,3-benzodioxol-5-yl)-2-[({2-[(2-hydroxyethyl)amino]pyridin-4-yl}methyl)amino]benzamide trifluoroacetate (salt)], less than 500 nM.

The compound `CCNC(=O)Nc1cc(CNc2ccccc2C(=O)Nc2ccc3c(c2)OC(F)(F)O3)ccn1` [Example 162, N-(2,2-difluoro-1,3-benzodioxol-5-yl)-2-{[(2-{[(ethylamino)carbonyl]amino}pyridin-4-yl)methyl]amino}benzamide] registered an IC50 (group: less than 500 nM) of less than 500 nM. With `CC(C)C[C@H](CO)NC(=O)c1cc(CNc2ccccc2C(=O)Nc2ccc3c(c2)OC(F)(F)O3)ccn1` [Example 109, 4-{[(2-{[(2,2-difluoro-1,3-benzodioxol-5-yl)amino]carbonyl}phenyl)amino]methyl}-N-[1-(hydroxymethyl)-3-methylbutyl]pyridine-2-carboxamide], for the setting “group: between 1 and 3 μM”, the half-inhibitory concentration (IC50) is 1000 to 3000 nM. Under setting [1], `COc1cccc(C(=O)Nc2ccc3c(c2)C(F)(F)OC(F)(F)O3)c1NCc1ccncc1` [Example 8, 3-methoxy-2-[(pyridin-4-ylmethyl)amino]-N-(2,2,4,4-tetrafluoro-4H-1,3-benzodioxin-6-yl)benzamide] gave an IC50 of 500 to 1000 nM.

`CS(=O)(=O)Nc1cc(CNc2ccccc2C(=O)Nc2ccc3c(c2)OC(F)(F)O3)ccn1` [Example 175, N-(2,2-difluoro-1,3-benzodioxol-5-yl)-2-[({2-[(methylsulfonyl)amino]pyridin-4-yl}methyl)amino]benzamide] displayed an IC50 (group: less than 500 nM) of less than 500 nM. The same measure, in the same setting: for `CNC(=O)c1cc(CNc2ccccc2C(=O)Nc2ccc3c(c2)C(F)(F)OC(F)(F)O3)ccn1` [Example 4, N-methyl-4-{[(2-{[(2,2,4,4-tetrafluoro-4H-1,3-benzodioxin-6-yl)amino]carbonyl}phenyl)amino]methyl}pyridine-2-carboxamide] the value was less than 500 nM; for `O=C(NCCCn1ccnc1)c1cc(CNc2ccccc2C(=O)Nc2ccc3c(c2)OC(F)(F)O3)ccn1` [Example 96, 4-{[(2-{[(2,2-difluoro-1,3-benzodioxol-5-yl)amino]carbonyl}phenyl)amino]methyl}-N-[3-(1H-imidazol-1-yl)propyl]pyridine-2-carboxamide], less than 500 nM.

Under setting [1], `CN(C)c1nccc(CNc2ccccc2C(=O)Nc2ccc3c(c2)OC(F)(F)C(F)(F)O3)n1` [Example 50, 2-({[2-(dimethylamino)pyrimidin-4-yl]methyl}amino)-N-(2,2,3,3-tetrafluoro-2,3-dihydro-1,4-benzodioxin-6-yl)benzamide] came in with an IC50 of 500 to 1000 nM.

With `O=C(Nc1ccc2c(c1)OC(F)(F)C(F)(F)O2)c1ccccc1NCc1ccncc1` [Example 6, 2-[(pyridin-4-ylmethyl)amino]-N-(2,2,3,3-tetrafluoro-2,3-dihydro-1,4-benzodioxin-6-yl)benzamide], where the note is “group: less than 500 nM”, the 50% inhibitory concentration (IC50) is less than 500 nM. Take `O=C(NCCc1ccc(O)cc1)c1cc(CNc2ccccc2C(=O)Nc2ccc3c(c2)OC(F)(F)O3)ccn1` [Example 129, 4-{[(2-{[(2,2-difluoro-1,3-benzodioxol-5-yl)amino]carbonyl}phenyl)amino]methyl}-N-[2-(4-hydroxyphenyl)ethyl]pyridine-2-carboxamide]: under setting [1], the IC50 lay in the range of 500 to 1000 nM. Turning to `O=C(NCCc1ccccn1)c1cc(CNc2ccccc2C(=O)Nc2ccc3c(c2)OC(F)(F)O3)ccn1` [Example 120, 4-{[(2-{[(2,2-difluoro-1,3-benzodioxol-5-yl)amino]carbonyl}phenyl)amino]methyl}-N-(2-pyridin-2-ylethyl)pyridine-2-carboxamide], the IC50 (group: less than 500 nM) is less than 500 nM.

`CCNC(=O)c1cc(CNc2cc(F)c(F)cc2C(=O)Nc2ccc3c(c2)OC(F)(F)C(F)(F)O3)ccn1` [Example 43, 4-{[(4,5-difluoro-2-{[(2,2,3,3-tetrafluoro-2,3-dihydro-1,4-benzodioxin-6-yl)amino]carbonyl}phenyl)amino]methyl}-N-ethylpyridine-2-carboxamide] displayed a 50% inhibitory concentration (IC50) under setting [1] of 500 to 1000 nM. `CCNC(=O)c1cc(CNc2cc(F)ccc2C(=O)Nc2ccc3c(c2)OC(F)(F)O3)ccn1` [Example 47, 4-{[(2-{[(2,2-difluoro-1,3-benzodioxol-5-yl)amino]carbonyl}-5-fluorophenyl)amino]methyl}-N-ethylpyridine-2-carboxamide] returned a concentration for half-maximal inhibition (IC50) (group: less than 500 nM) of less than 500 nM. Still for that read-out and setting: for `N#Cc1cc(CNc2cc(F)ccc2C(=O)Nc2ccc3c(c2)OC(F)(F)O3)ccn1` [Example 29, 2-{[(2-cyanopyridin-4-yl)methyl]amino}-N-(2,2-difluoro-1,3-benzodioxol-5-yl)-4-fluorobenzamide] the value was less than 500 nM. Still for that read-out and setting: for `COC(C)(C)C(=O)Nc1cc(CNc2ccccc2C(=O)Nc2ccc3c(c2)OC(F)(F)O3)ccn1` [Example 159, N-(2,2-difluoro-1,3-benzodioxol-5-yl)-2-[({2-[(2-methoxy-2-methylpropanoyl)amino]pyridin-4-yl}methyl)amino]benzamide] the value was less than 500 nM.
